In general, inhibition refers to the percentage by which the read-out fell short of the control.

For seven compounds, inhibition results are on record in ChEMBL document CHEMBL1817560, “Selectivity of kinase inhibitor fragments” (J Med Chem, 2011).

Assay [1] concerns the target Mitogen-activated protein kinase 8 (Homo sapiens, UniProt P45983). Description: Inhibition of JNK1 expressed in Escherichia coli or baculovirus-infected insect cells at 667 uM by TR-FRET assay. On the technique in general: TR-FRET usually uses a lanthanide donor and a delayed reading to cut background.
Assay [2] addresses RAC-beta serine/threonine-protein kinase (Homo sapiens) (UniProt P31751). Put plainly: Inhibition of AKT2 expressed in Escherichia coli or baculovirus-infected insect cells using gamma-[33P]ATP at 400 uM by scintillation proximity assay. On the technique in general: In a scintillation proximity assay essentially only radioactivity close to the scintillant gives light.
Assay [3] deals with T1, Aurora kinase A (Homo sapiens) (UniProt O14965).
T1 sequence (whole entry): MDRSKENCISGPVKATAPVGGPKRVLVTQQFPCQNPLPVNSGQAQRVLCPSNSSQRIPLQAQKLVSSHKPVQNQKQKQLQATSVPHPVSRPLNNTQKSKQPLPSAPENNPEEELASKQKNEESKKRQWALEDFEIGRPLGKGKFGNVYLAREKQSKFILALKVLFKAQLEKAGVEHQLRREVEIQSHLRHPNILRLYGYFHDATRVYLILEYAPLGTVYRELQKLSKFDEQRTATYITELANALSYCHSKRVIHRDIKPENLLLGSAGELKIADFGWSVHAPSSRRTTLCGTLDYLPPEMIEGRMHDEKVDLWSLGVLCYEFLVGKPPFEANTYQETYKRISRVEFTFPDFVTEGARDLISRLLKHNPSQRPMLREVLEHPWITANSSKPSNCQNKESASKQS
Put plainly: Inhibition of AurA expressed in Escherichia coli or baculovirus-infected insect cells at 400 uM by IMAP assay.

The target of assay [4] is Aurora kinase B (Homo sapiens) (UniProt Q96GD4). Put plainly: Inhibition of AurB expressed in Escherichia coli or baculovirus-infected insect cells at 400 uM by IMAP assay.
Assay [5] addresses Epidermal growth factor receptor (Homo sapiens) (UniProt P00533). Description: Inhibition of EGFR expressed in Escherichia coli or baculovirus-infected insect cells at 400 uM by TR-FRET assay.
For assay [6], the target named is Tyrosine-protein kinase Fes/Fps (Homo sapiens) (UniProt P07332). Put plainly: Inhibition of FES expressed in Escherichia coli or baculovirus-infected insect cells using ATP as substrate at 400 uM by fluorescence polarization assay. Background: Polarisation of emitted light reports the rotation of a fluorescent probe.
The target in assay [7] is Receptor tyrosine-protein kinase erbB-2 (Homo sapiens) (UniProt P04626). Description: Inhibition of ErbB2 expressed in Escherichia coli or baculovirus-infected insect cells at 400 uM by TR-FRET assay.
The target in assay [8] is Receptor tyrosine-protein kinase erbB-4 (Homo sapiens) (UniProt Q15303). Put plainly: Inhibition of ErbB4 expressed in Escherichia coli or baculovirus-infected insect cells at 400 to 667 uM by TR-FRET assay.
The target of assay [9] is Focal adhesion kinase 1 (Homo sapiens) (UniProt Q05397). Description: Inhibition of FAK expressed in Escherichia coli or baculovirus-infected insect cells at 400 uM by TR-FRET assay.
Assay [10] concerns the target Glycogen synthase kinase-3 beta (Homo sapiens) (UniProt P49841). Description: Inhibition of GSK3-beta expressed in Escherichia coli or baculovirus-infected insect cells using ATP as substrate at 667 uM by fluorescence polarization assay.
The target of assay [11] is MAP kinase-activated protein kinase 2 (Homo sapiens) (UniProt P49137). Description: Inhibition of MK2 expressed in Escherichia coli or baculovirus-infected insect cells at 667 uM by IMAP assay.
Assay [12] concerns the target Serine/threonine-protein kinase PAK 2 (Homo sapiens) (UniProt Q13177). Description: Inhibition of PAK2 expressed in Escherichia coli or baculovirus-infected insect cells at 400 uM by IMAP assay.
The target of assay [13] is T2, Phosphatidylinositol 4,5-bisphosphate 3-kinase catalytic subunit delta isoform (Homo sapiens) (UniProt O00329).
T2 sequence (whole entry): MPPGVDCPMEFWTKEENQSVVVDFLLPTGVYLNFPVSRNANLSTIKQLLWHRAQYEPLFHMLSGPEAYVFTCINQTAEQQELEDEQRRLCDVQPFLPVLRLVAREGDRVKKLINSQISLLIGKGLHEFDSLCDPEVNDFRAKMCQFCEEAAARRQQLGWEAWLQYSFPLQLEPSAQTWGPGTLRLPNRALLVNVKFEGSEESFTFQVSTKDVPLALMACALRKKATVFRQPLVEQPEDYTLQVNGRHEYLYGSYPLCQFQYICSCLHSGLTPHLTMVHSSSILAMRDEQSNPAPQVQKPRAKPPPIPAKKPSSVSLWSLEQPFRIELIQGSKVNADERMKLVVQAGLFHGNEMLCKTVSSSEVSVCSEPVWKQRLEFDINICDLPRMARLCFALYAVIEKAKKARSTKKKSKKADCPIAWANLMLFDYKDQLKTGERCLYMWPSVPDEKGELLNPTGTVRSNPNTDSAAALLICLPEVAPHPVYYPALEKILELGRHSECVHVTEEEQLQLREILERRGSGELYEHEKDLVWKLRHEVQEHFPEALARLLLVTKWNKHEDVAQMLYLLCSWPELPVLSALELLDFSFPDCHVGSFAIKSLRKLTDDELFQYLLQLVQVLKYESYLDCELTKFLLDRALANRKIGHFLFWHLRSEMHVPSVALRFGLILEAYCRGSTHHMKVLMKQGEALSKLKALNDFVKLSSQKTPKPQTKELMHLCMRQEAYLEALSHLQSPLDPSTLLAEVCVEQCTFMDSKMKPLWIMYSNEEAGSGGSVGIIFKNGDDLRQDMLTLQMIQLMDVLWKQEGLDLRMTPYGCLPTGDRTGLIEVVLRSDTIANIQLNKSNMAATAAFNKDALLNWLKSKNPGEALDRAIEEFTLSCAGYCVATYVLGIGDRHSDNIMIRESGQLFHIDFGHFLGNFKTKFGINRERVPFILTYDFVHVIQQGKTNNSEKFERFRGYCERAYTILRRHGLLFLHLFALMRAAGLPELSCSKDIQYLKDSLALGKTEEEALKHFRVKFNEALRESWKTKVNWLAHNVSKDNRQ
Put plainly: Inhibition of PI3Kdelta expressed in Escherichia coli or baculovirus-infected insect cells using gamma-[33P]ATP at 400 uM by scintillation proximity assay.

The target in assay [14] is Receptor-interacting serine/threonine-protein kinase 2 (Homo sapiens) (UniProt O43353). Description: Inhibition of RIP2 expressed in Escherichia coli or baculovirus-infected insect cells at 400 uM by fluorescence polarization assay.

Chain of Receptor tyrosine-protein kinase erbB-4 (Homo sapiens) (Q15303 whole entry): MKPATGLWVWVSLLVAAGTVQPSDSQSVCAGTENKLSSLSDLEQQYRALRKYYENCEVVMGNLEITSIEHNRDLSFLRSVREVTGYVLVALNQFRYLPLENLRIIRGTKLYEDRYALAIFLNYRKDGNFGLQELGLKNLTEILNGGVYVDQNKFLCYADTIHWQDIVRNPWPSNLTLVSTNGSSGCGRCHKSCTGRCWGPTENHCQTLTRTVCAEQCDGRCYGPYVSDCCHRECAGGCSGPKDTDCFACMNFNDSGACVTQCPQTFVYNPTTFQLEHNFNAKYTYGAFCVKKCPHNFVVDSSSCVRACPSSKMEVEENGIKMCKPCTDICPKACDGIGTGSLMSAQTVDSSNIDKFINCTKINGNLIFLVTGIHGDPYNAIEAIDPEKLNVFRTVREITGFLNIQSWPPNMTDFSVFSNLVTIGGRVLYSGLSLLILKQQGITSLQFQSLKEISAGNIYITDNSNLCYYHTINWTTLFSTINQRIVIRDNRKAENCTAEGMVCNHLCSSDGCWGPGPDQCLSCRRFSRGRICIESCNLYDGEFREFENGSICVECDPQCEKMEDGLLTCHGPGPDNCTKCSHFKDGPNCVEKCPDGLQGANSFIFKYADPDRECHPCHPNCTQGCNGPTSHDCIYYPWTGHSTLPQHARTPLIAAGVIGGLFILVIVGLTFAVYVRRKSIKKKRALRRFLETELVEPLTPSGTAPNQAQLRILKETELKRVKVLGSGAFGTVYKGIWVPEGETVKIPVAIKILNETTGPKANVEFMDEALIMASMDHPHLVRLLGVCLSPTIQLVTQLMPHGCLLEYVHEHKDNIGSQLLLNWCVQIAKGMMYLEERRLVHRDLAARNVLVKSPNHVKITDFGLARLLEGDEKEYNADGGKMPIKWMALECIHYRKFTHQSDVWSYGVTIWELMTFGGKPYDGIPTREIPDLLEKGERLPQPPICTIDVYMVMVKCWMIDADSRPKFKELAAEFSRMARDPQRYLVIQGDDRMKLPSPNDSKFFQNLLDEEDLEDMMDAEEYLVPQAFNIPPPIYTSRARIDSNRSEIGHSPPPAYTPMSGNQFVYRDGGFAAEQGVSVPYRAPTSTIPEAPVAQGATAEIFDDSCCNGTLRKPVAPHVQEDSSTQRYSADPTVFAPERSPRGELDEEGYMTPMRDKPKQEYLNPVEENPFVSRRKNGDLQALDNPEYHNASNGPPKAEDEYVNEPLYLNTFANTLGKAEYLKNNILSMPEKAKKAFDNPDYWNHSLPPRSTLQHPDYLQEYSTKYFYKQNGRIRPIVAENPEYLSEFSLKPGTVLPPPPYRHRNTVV
Chain of MAP kinase-activated protein kinase 2 (Homo sapiens) (P49137 whole entry, looked up): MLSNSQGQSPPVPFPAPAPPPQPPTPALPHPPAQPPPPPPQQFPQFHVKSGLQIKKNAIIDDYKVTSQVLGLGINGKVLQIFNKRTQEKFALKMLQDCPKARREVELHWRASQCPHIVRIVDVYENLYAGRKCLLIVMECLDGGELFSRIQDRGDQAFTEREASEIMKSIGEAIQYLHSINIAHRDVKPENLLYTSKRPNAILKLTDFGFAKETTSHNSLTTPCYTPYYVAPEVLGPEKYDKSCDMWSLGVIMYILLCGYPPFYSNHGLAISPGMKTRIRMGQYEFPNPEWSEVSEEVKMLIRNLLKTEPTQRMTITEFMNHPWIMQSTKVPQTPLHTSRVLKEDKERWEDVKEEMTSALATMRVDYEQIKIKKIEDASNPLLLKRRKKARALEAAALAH
Chain of Tyrosine-protein kinase Fes/Fps (Homo sapiens) (P07332 whole entry): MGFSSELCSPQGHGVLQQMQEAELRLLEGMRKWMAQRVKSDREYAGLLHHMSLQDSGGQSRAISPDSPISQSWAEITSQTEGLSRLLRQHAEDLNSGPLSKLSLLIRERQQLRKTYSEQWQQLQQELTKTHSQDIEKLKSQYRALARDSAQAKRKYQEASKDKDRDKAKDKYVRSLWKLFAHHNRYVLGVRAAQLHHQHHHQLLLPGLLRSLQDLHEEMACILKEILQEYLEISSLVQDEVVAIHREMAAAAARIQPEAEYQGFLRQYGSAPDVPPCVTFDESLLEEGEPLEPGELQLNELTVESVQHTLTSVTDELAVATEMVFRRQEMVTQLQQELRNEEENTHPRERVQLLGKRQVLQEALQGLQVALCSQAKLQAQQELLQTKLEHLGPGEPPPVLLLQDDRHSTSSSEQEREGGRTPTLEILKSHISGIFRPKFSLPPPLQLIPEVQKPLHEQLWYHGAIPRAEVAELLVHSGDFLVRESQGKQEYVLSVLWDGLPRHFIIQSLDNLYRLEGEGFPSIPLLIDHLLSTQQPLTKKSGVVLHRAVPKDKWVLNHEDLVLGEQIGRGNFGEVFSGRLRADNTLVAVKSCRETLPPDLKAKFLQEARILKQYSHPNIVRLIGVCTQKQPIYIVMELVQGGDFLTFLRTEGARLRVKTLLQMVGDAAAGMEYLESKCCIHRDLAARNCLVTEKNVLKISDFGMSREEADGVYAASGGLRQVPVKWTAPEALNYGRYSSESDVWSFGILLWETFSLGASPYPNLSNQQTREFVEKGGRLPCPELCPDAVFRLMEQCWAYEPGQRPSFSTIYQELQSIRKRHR
Chain of Glycogen synthase kinase-3 beta (Homo sapiens) (P49841 whole entry, looked up): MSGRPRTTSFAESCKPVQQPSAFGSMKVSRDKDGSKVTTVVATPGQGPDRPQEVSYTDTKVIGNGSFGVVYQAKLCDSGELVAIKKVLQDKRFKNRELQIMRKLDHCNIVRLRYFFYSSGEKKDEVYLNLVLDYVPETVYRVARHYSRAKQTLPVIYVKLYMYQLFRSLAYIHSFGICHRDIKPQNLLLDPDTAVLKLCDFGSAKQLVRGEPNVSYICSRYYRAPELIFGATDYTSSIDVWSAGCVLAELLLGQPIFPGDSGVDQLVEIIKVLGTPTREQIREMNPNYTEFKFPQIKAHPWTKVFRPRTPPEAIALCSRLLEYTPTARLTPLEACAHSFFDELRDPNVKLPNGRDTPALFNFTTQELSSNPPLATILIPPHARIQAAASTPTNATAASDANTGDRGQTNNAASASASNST
Chain of Aurora kinase B (Homo sapiens) (Q96GD4 whole entry): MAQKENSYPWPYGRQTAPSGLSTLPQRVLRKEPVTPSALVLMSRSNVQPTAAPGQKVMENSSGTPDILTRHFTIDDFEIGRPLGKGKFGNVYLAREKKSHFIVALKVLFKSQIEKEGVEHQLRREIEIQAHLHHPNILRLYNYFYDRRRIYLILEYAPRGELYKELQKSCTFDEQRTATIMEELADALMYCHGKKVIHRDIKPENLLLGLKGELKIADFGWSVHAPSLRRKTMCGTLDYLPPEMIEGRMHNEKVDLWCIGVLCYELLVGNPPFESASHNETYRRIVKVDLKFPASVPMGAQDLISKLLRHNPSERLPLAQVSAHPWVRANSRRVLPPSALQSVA
Chain of Epidermal growth factor receptor (Homo sapiens) (P00533 whole entry): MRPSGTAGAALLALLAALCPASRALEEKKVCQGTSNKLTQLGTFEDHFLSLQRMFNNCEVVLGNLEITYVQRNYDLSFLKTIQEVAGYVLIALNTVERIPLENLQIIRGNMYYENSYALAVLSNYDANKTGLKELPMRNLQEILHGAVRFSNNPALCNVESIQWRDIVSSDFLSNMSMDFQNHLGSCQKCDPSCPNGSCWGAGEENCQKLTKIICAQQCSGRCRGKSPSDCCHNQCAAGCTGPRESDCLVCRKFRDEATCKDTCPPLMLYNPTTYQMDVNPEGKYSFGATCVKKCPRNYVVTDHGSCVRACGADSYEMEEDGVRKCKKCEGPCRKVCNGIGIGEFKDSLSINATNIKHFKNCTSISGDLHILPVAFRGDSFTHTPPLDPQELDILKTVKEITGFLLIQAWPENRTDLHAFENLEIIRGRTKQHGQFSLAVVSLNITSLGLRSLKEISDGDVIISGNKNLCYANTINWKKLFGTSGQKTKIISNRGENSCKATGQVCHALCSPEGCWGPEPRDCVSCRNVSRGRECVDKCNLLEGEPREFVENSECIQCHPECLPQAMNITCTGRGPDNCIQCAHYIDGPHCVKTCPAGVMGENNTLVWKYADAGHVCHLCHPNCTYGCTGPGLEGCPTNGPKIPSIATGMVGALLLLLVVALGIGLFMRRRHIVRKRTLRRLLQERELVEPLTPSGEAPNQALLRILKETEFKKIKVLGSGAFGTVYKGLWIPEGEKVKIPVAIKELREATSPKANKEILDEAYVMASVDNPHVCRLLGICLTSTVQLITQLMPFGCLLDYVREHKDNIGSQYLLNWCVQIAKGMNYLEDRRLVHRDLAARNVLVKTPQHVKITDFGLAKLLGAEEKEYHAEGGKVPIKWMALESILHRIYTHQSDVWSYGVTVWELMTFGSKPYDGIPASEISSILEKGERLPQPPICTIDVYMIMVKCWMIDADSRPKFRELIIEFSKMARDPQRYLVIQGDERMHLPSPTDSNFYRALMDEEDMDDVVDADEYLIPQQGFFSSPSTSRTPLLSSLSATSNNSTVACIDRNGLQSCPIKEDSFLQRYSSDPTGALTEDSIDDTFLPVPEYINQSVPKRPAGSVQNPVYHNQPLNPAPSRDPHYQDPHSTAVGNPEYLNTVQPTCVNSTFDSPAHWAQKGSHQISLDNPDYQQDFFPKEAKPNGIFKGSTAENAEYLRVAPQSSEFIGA
Chain of Serine/threonine-protein kinase PAK 2 (Homo sapiens) (Q13177 whole entry, canonical isoform): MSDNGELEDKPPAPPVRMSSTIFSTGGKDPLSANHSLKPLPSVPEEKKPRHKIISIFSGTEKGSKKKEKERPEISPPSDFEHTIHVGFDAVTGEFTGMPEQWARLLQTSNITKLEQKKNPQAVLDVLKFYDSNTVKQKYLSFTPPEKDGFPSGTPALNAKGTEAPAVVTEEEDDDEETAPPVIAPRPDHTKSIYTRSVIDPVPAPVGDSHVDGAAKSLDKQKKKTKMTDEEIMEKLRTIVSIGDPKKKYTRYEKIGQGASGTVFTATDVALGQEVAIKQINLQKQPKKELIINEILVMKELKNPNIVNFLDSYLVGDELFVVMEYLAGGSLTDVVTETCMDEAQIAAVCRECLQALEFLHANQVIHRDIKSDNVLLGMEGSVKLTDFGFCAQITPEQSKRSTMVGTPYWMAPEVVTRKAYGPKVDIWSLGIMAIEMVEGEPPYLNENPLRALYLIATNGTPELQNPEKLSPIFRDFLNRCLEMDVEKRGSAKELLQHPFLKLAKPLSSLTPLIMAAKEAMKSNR

Regarding `c1ccc(-c2cnc3nccnn23)cc1`, the inhibition in assay [1] came out at 14%; in assay [2], 8%; in assay [3], 0%; in [4], 0%; in assay [5], 8%; in assay [6] it was 70%. Besides, the inhibition in [7] was found to be 0%; in assay [8], 0%; in [9] it was 0%; in [10], 19%; in [11], 0%; in assay [12] it was 0%. For the same compound, the inhibition stood at 42% in [13] and 0% in assay [14].

For `Nc1ccc2ncc(-c3ccccc3)n2n1`, the inhibition in assay [1] came to 83%; in [2], 39%; in assay [3], 96%; in assay [4], 97%; in assay [5] it was 36%; in assay [6] it was 68%. The inhibition in [7] worked out at 25%; in [8], 47%; in assay [9], 33%; in assay [10], 66%; in assay [11], 28%; in assay [12], 32%. Also, the inhibition is 90% in assay [13] and 69% in assay [14].

Turning to `CC(C)(C)c1cc(NC(=O)Nc2ccccc2)no1`, the inhibition came to 4% in assay [1]; 15% in [2]; 27% in assay [3]; 31% in assay [4]; 4% in assay [5]; 3% in assay [6]. Moreover, the inhibition was determined as 0% in [7]; 0% in assay [8]; 3% in assay [9]; 19% in assay [10]; 28% in [11]; 0% in assay [12]. Also, the figures for the inhibition in assay [13] and in assay [14] were 41% and 7%, respectively.

Consider `Cc1ccc(NC(=O)Nc2cccc(C(F)(F)F)c2)cc1`, for which the inhibition was found to be 0% in assay [1]; 0% in assay [2]; 7% in assay [3]; 12% in assay [4]; 0% in assay [5]; 0% in assay [6]. The inhibition in [7] was found to be 0%; in assay [8], 0%; in [9], 4%; in assay [10] it was 22%; in [11], 13%; in assay [12], 0%. For the same compound, the inhibition in assay [13] was found to be 8%; in [14], 1%.

Take `Nc1ncccc1OCc1ccccc1`: the inhibition in assay [1] came to 18%; in assay [2], 25%; in assay [3], 40%; in assay [4], 77%; in assay [5], 9%; in assay [6] it was 100%. Also, the inhibition in [7] amounted to 21%; in [8] it was 17%; in assay [9] it was 6%; in assay [10] it was 92%; in assay [11], 54%; in [12] it was 17%. In addition, the inhibition in assay [13] worked out at 36%; in [14], 94%.

For the compound `Nc1n[nH]c2ncccc12`, the inhibition in assay [1] was found to be 20%; in assay [2] it was 14%; in assay [3] it was 92%; in assay [4], 100%; in assay [5], 18%; in assay [6], 12%. Also, the inhibition in [7] stood at 9%; in assay [8], 13%; in assay [9] it was 7%; in assay [10], 59%; in assay [11], 47%; in [12], 7%. Also, the inhibition was 18% in assay [13] and 10% in assay [14].

Consider `Nc1[nH]nc2ccccc12`, for which the inhibition came out at 34% in assay [1]; 16% in [2]; 84% in [3]; 98% in assay [4]; 0% in assay [5]; 11% in [6]. In addition, the inhibition in assay [7] came out at 1%; in assay [8], 0%; in assay [9] it was 13%; in assay [10], 34%; in assay [11] it was 54%; in assay [12] it was 16%. For the same compound, the inhibition in assay [13] came out at 19%; in assay [14], 11%.
